Data as given in ChEMBL document CHEMBL1151283, “Bis(bibenzyls) from liverworts inhibit lipopolysaccharide-induced inducible NOS in RAW 264.7 cells: a study of structure-activity relationships and molecular mechanism” (J Nat Prod, 2005).
The source made the active and inactive calls. The calls are words filed in the database; no cut-off is given here.

These compounds were tested on RAW264.7 (assay: Inhibition of LPS-induced nitric oxide production in mouse RAW264.7 cells pretreated 1 hr before LPS challenge after 24 hrs by Griess reagent method).
Assay type: functional, cell-based

Row | Compound | IC50
1 | Oc1ccc2cc1-c1cc(ccc1O)CCc1c(ccc(O)c1O)Oc1cccc(c1)/C=C\2 [ISOPLAGIOCHIN B] | > 100 µM
2 | COC1Cc2cccc(c2)Oc2c(O)cccc2CCc2ccc(cc2)Oc2cc1cc(O)c2O (stereo not given) [MARCHANTIN E] | 62.2 µM
3 | Oc1ccc2cc1Oc1ccc(cc1)CCc1cc(O)c(O)c(c1)Oc1cccc(c1)CC2 [MARCHANTIN H] | 15.3 µM
4 | Oc1ccc2cc1Oc1cccc(c1)CC(O)c1cc(O)c(O)c(c1)Oc1ccc(cc1)CC2 (stereo not given) [MARCHANTIN D] | 10.2 µM
5 | Oc1ccc2c(c1)CCc1ccc(O)c(c1)-c1cc(ccc1O)/C=C\c1cccc(c1)O2 [ISOPLAGIOCHIN A] | > 100 µM
6 | Oc1ccc2c(c1)/C=C/c1ccc(O)c(c1)Oc1ccc(cc1)CCc1cccc(c1)O2 [PTYCHANTOL A] | > 100 µM
7 | COc1cc2c(cc1O)-c1ccc(O)cc1CCc1cc(O)c(O)c(c1)Oc1ccc(cc1)CC2 [PLAGIOCHIN A] | 9.07 µM
8 | Oc1cc2cc(c1O)Oc1ccc(cc1)CCc1ccc(O)c(O)c1Oc1cccc(c1)CC2 [MARCHANTIN B] | 4.1 µM
9 | Oc1cccc(CCc2ccc(Oc3cc(CCc4cccc(O)c4)cc(O)c3O)cc2)c1 [PERROTETTIN F] | 7.42 µM
10 | Oc1ccc2c(c1)CCc1ccc(O)c(c1)-c1cc(ccc1O)CCc1ccc-2c(O)c1 [ISOPLAGIOCHIN D] | 14.3 µM
11 | COc1cc2cc(c1OC)Oc1ccc(cc1)CCc1ccc(OC)c(OC)c1Oc1cccc(c1)CC2 [MARCHANTIN B TETRAMETHYL ETHER] | 42.5 µM
12 | Oc1cc2cc(c1O)Oc1ccc(cc1)CCc1cccc(O)c1Oc1cccc(c1)CC2 [MARCHANTIN A] | 1.44 µM
13 | Oc1ccc2cc1Oc1ccc(cc1)CCc1cccc(c1)Oc1c(O)cccc1CC2 [ISOMARCHANTIN C] | > 100 µM
14 | COc1cccc(CCc2ccc(O)c(Oc3ccc(CCc4cccc(O)c4)cc3)c2)c1 | 49.9 µM
15 | COc1ccc2cc1Oc1ccc(cc1)CCc1cc(O)ccc1-c1ccc(cc1O)CC2 [RICCARDI F] | 5 µM
16 | COc1ccc2c(c1)CCc1ccc(cc1)Oc1cc(ccc1O)CCc1ccc-2c(O)c1 [RICCARDIN A] | 2.5 µM
17 | Oc1ccc2c(c1)CCc1ccc(cc1)Oc1cc(ccc1O)CCc1ccc-2c(O)c1 [RICCARDI C] | > 100 µM
18 | COc1cccc2c1Oc1cccc(c1)CCc1cc(OC)c(OC)c(c1)Oc1ccc(cc1)CC2 [MARCHANTIN A TRIMETHYL ETHER] | 42.5 µM

These compounds were tested on RAW264.7 (assay: Inhibition of LPS-induced iNOS mRNA expression in mouse RAW264.7 cells […] by RT-PCR analysis).
Assay type: functional, cell-based

Row | Compound | Activity
19 | Oc1cc2cc(c1O)Oc1ccc(cc1)CCc1cccc(O)c1Oc1cccc(c1)CC2 [MARCHANTIN A] | Dose-dependent effect

Each compound was assayed on RAW264.7 (assay: Inhibition of iNOS mRNA expression in mouse RAW264.7 cells […] by RT-PCR analysis).
Assay type: functional, cell-based

Row | Compound | Activity
20 | Oc1cc2cc(c1O)Oc1ccc(cc1)CCc1cccc(O)c1Oc1cccc(c1)CC2 [MARCHANTIN A] | inactive
